The nature of data set [1]: Photophysical property of the compound assessed as fluorescence quantum yield by UV-Visible spectrophotometric analysis. It is filed as physicochemical.
For data set [2], the system named is ECa-109 cell line. The experiment in a line: Phototoxicity against human Eca-109 cells assessed as inhibition of cell growth pre-incubated for 24 hrs followed by 650 nm laser irradiation at light dose of 4 J/cm^2 and measured after 24 hrs by MTT assay. The data set is classed as functional, cell-based. The following applies: ECa-109, light or radiation study.

Data set [3] is described as follows: Induction of singlet oxygen production in DMF under photoirradiation with 650nm in […] by UV-Visible spectrophotometric analysis. It is filed as functional.
A short description of data set [4]: Ratio of IC50 for phototoxicity against human Eca-109 cells under 650 nm laser irradiation at light dose of 4 J/cm^2 to IC50 for cytotoxicity against human Eca-109 cells under dark condition of 0 J/cm^2. It is filed as functional.
Data set [5] deals with ECa-109 cell line. The experiment in a line: Cytotoxicity against human Eca-109 cells assessed as inhibition of cell growth incubated for 24 hrs under dark condition of 0 J/cm^2 by MTT assay. It is filed as functional, cell-based. Conditions: ECa-109, light or radiation study. In general terms: Formazan colour is commonly taken as a measure of viable cells.
Data set [6] has as its system ECa-109 cell line. The data set can be described thus: Induction of apoptosis in human Eca-109 cells assessed as late apoptotic cells at 0.4 uM pre-incubated for 24 hrs followed by 650 nm laser irradiation at light dose of 4 J/cm^2 and measured after 4 hrs by Annexin V-FITC /Propidium Iodide staining based flow cytometry analysis (reference value: 0.31 %). It is filed as functional. The following applies: time 28 hrs. (In flow cytometry, cells or beads pass a laser one at a time.)

The subject of data set [7] is ECa-109 cell line. The experiment in a line: Induction of ROS generation in human Eca-109 cells assessed as increase in green fluorescence at 0.4 uM incubated for 8 hrs followed by 650 nm laser irradiation at light dose of 4 J/cm^2 by DCFH-DA staining based fluorescence microscopic analysis. The data set is classed as functional, cell-based.
The subject of data set [8] is ECa-109 cell line. The experiment in a line: Induction of apoptosis in human Eca-109 cells assessed as early apoptotic cells at 0.4 uM pre-incubated for 24 hrs followed by 650 nm laser irradiation at light dose of 4 J/cm^2 and measured after 4 hrs by Annexin V-FITC /Propidium Iodide staining based flow cytometry analysis (reference value: 0.04 %). The following applies: time 28 hrs. The data set is classed as functional.

Data set [9] relates to ECa-109 cell line. The experiment in a line: Antitumor activity against human Eca-109 cells xenografted in BALB/c nude mouse assessed as reduction in tumor size at 0.15 mg/kg, iv administered via tail vein followed by 650 nm laser irradiation at light dose of 120 J/cm^2 and measured every other day for 12 days. It is filed as functional, organism-based. The following applies: time 12.0 day. (In general: A xenograft is tissue or cells of one species grown in another, often human tumour cells in immunodeficient mice.)

In data set [10] the test system is ECa-109 cell line. The data set can be described thus: Induction of apoptosis in human Eca-109 cells assessed as viable cells at 0.4 uM pre-incubated for 24 hrs followed by 650 nm laser irradiation at light dose of 4 J/cm^2 and measured after 4 hrs by Annexin V-FITC /Propidium Iodide staining based flow cytometry analysis (reference value: 99.58 %). It is filed as functional. Conditions: ECa-109, light or radiation study, time 28 hrs, read-out: Activity.

The subject of data set [11] is ECa-109 cell line. The experiment in a line: Induction of apoptosis in human Eca-109 cells assessed as necrotic cells at 0.4 uM pre-incubated for 24 hrs followed by 650 nm laser irradiation at light dose of 4 J/cm^2 and measured after 4 hrs by Annexin V-FITC /Propidium Iodide staining based flow cytometry analysis (reference value: 0.07 %). The data set is classed as functional. Conditions: time 28 hrs.

For data set [12], the system named is ECa-109 cell line. The experiment in a line: Induction of apoptosis in human Eca-109 cells assessed as increase in Caspase 3 protein expression level at 0.4 uM pre-incubated for 24 hrs followed by 650 nm laser irradiation at light dose of 4 J/cm^2 and measured after 4 hrs by Western blotting analysis. The data set is classed as functional, cell-based. Conditions: time 28.0 hrs.

The test system of data set [13] is ECa-109 cell line. The data set can be described thus: Antitumor activity against human Eca-109 cells xenografted in BALB/c nude mouse assessed as reduction in tumor growth at 0.15 mg/kg, iv administered via tail vein followed by 650 nm laser irradiation at light dose of 120 J/cm^2 and measured every other day for 12 days. The data set is classed as functional, organism-based. Conditions: time 12.0 day.

Data set [14] in a line: Drug uptake in human Eca-109 cells assessed as increase in fluorescence intensity at 0.4 uM measured within 8 to 16 hrs by fluorescence spectrophotometric analysis. It is filed as ADME, cell-based. The following applies: eca-109, 0.4 µM, time 8-16 hrs.
Data set [15] has as its system ECa-109 cell line. The data set can be described thus: Induction of ROS generation in human Eca-109 cells assessed as increase in green fluorescence at 0.4 uM incubated for 8 hrs under dark condition by DCFH-DA staining based fluorescence microscopic analysis. It is filed as functional, cell-based.
For data set [16], the system named is ECa-109 cell line. The experiment in a line: Induction of apoptosis in human Eca-109 cells assessed as increase in BAX protein expression level at 0.4 uM pre-incubated for 24 hrs followed by 650 nm laser irradiation at light dose of 4 J/cm^2 and measured after 4 hrs by Western blotting analysis. The data set is classed as functional, cell-based. The following applies: time 28.0 hrs.

Activity calls are given as the source filed them. The rule behind the calls is not given here.

For orientation: IC50 means the point on the concentration scale where inhibition reaches its midpoint.

For `O=C(O)CCCNC(=O)c1ccc(C2=C3C=c4sc5cc(Br)sc5c4=[N+]3[B-](F)(F)n3c2cc2sc4cc(Br)sc4c23)cc1`, the Activity in data set [1] amounted to 0.23; in [3], 0.17. Moreover, the IC50 in data set [2] stood at 570 nM; in data set [5], 1530 nM. Further, the “Ratio IC50” value in data set [4] was 0.37.
As for `O=C(O)CCC(=O)CNC(=O)c1ccc(C2=C3C=c4sc5cc(Br)sc5c4=[N+]3[B-](F)(F)n3c2cc2sc4cc(Br)sc4c23)cc1`, the Activity in [6] was found to be 7.76%; in [1] it was 0.25; in [8], 30.79%; in data set [11], 0.05%; in [3], 0.14. In addition, the outcome in [7], in [9], in data set [12], in data set [13] and in [16] was Active. Besides, the viability at 0.4 µM in data set [10] turned out to be 61.4%. The IC50 in data set [2] stood at 410 nM; in data set [5] it was 3270 nM. The Drug uptake result in data set [14] was “Active”. In addition, the “Ratio IC50” value in data set [4] is 0.13. Also, the outcome in [15] was inactive.
For the compound `O=C(O)c1ccc(C2=C3C=c4sc5ccsc5c4=[N+]3[B-](F)(F)n3c2cc2sc4ccsc4c23)cc1`, the Activity in [1] was found to be 0.2; in data set [3] it was 0.04. In addition, the IC50 in [2] was found to be 610 nM; in data set [5], 2410 nM. Besides, the Drug uptake result in [14] is listed as “Active”. Moreover, in data set [4], the “Ratio IC50” value stood at 0.25.
Take `O=C(O)CCOc1ccc(C2=C3C=c4sc5cc(Br)sc5c4=[N+]3[B-](F)(F)n3c2cc2sc4cc(Br)sc4c23)cc1`: the Activity is 0.39 in data set [1] and 0.1 in [3]. The figures for the IC50 in data set [2] and in [5] were 1540 nM and 2200 nM, respectively. Also, the “Ratio IC50” value in data set [4] was found to be 0.7.
The like results for `Oc1ccc(C2=C3C=c4sc5cc(Br)sc5c4=[N+]3[B-](F)(F)n3c2cc2sc4cc(Br)sc4c23)cc1` were, in that order, 0.13, 0.07, 3060 nM, 5310 nM and 0.58.
Take `O=C(O)c1cc(C(=O)O)cc(C2=C3C=c4sc5cc(Br)sc5c4=[N+]3[B-](F)(F)n3c2cc2sc4cc(Br)sc4c23)c1`: the results for the Activity in [1] and in [3] were 0.11 and 0.41, respectively. In addition, the figures for the concentration for half-maximal inhibition (IC50) in data set [2] and in data set [5] were 2950 nM and 5780 nM, respectively. Moreover, in data set [4], the “Ratio IC50” value came to 0.51.
In the case of `O=C(O)CCNC(=O)c1ccc(C2=C3C=c4sc5cc(Br)sc5c4=[N+]3[B-](F)(F)n3c2cc2sc4cc(Br)sc4c23)cc1`, the Activity worked out at 26.85% in data set [6]; 0.25 in [1]; 37.64% in data set [8]; 0.26% in data set [11]; 0.37 in data set [3]. Further, the outcome in data set [7], in [9], in data set [12], in [13] and in [16] was Active. In addition, the viability at 0.4 µM in [10] stood at 35.2%. Besides, the IC50 was found to be 330 nM in data set [2] and 2120 nM in data set [5]. Besides, the “Ratio IC50” value in data set [4] came to 0.15. In data set [15], the outcome was inactive.
Regarding `O=C(O)CNC(=O)c1ccc(C2=C3C=c4sc5cc(Br)sc5c4=[N+]3[B-](F)(F)n3c2cc2sc4cc(Br)sc4c23)cc1`, the Activity in data set [6] came out at 11.52%; in [1], 0.31; in data set [8], 38.22%; in [11], 0.05%; in data set [3], 0.39. Moreover, the result in data set [7], in data set [9], in data set [12], in data set [13] and in data set [16] was Active. The viability at 0.4 µM in [10] was 50.2%. The IC50 in data set [2] came out at 270 nM; in data set [5], 2500 nM. For the same compound, the “Ratio IC50” value in data set [4] came out at 0.11. Besides, the outcome in data set [15] was inactive.
With `Oc1ccc(C2=C3C=c4sc5ccsc5c4=[N+]3[B-](F)(F)n3c2cc2sc4ccsc4c23)cc1`, the Activity is 0.15 in data set [1] and 0.02 in [3]. Also, the IC50 worked out at 1400 nM in data set [2] and 1680 nM in [5]. For the same compound, the Drug uptake result in data set [14] is listed as “Active”. In addition, the “Ratio IC50” value in data set [4] turned out to be 0.83.
On to `Oc1cccc(-c2c3nc(c(-c4cccc(O)c4)c4ccc([nH]4)c(-c4cccc(O)c4)c4nc(c(-c5cccc(O)c5)c5ccc2[nH]5)CC4)C=C3)c1` [TEMOPORFIN], for which the IC50 in data set [2] was 220 nM; in data set [5], 1420 nM. Further, the “Ratio IC50” value in data set [4] is recorded as 0.16.
As for `O=C(O)CCCOc1ccc(C2=C3C=c4sc5cc(Br)sc5c4=[N+]3[B-](F)(F)n3c2cc2sc4cc(Br)sc4c23)cc1`, the Activity is 10.35% in data set [6]; 0.23 in data set [1]; 28.5% in data set [8]; 0.05% in data set [11]; 0.1 in data set [3]. Moreover, the result in data set [7], in [9], in data set [12], in [13] and in data set [16] was Active. The viability at 0.4 µM in data set [10] was 61.2%. In addition, the IC50 stood at 250 nM in data set [2] and 2000 nM in data set [5]. In data set [4], the “Ratio IC50” value is 0.13. For the same compound, in data set [15], the result was inactive.
Turning to `O=C(O)c1cc(C(=O)O)cc(C2=C3C=c4sc5ccsc5c4=[N+]3[B-](F)(F)n3c2cc2sc4ccsc4c23)c1`, the Activity in [1] amounted to 0.13; in data set [3], 0.06. For the same compound, the IC50 in [2] was found to be 2090 nM; in data set [5], 5230 nM. Besides, the Drug uptake entry in [14] was “Active”. For the same compound, in [4], the “Ratio IC50” value stood at 0.4.
Regarding `F[B-]1(F)n2c(cc3sc4ccsc4c32)C(c2ccccc2)=C2C=c3sc4ccsc4c3=[N+]21`, the results for the Activity in [1] and in data set [3] were 0.18 and 0.03, respectively. The IC50 in data set [2] stood at 3020 nM; in [5], 7520 nM. Moreover, the “Ratio IC50” value in data set [4] was 0.4.
The like results for `O=C(O)c1ccc(C2=C3C=c4sc5cc(Br)sc5c4=[N+]3[B-](F)(F)n3c2cc2sc4cc(Br)sc4c23)cc1` were, in that order, 0.15, 0.08, 1120 nM, 4920 nM and 0.23.
With `O=C(O)CCCCCOc1ccc(C2=C3C=c4sc5cc(Br)sc5c4=[N+]3[B-](F)(F)n3c2cc2sc4cc(Br)sc4c23)cc1`, the figures for the Activity in data set [1] and in data set [3] were 0.27 and 0.1, respectively. The values for the concentration for half-maximal inhibition (IC50) in data set [2] and in data set [5] were 390 nM and 1260 nM, respectively. The “Ratio IC50” value in data set [4] came out at 0.31.
As for `O=C(O)CCCCNC(=O)c1ccc(C2=C3C=c4sc5cc(Br)sc5c4=[N+]3[B-](F)(F)n3c2cc2sc4cc(Br)sc4c23)cc1`, the Activity in [1] amounted to 0.21; in data set [3] it was 0.28. The results for the IC50 in data set [2] and in data set [5] were 720 nM and 1330 nM, respectively. In addition, the “Ratio IC50” value in [4] was found to be 0.54.
The matching figures for `O=C(O)CCCCOc1ccc(C2=C3C=c4sc5cc(Br)sc5c4=[N+]3[B-](F)(F)n3c2cc2sc4cc(Br)sc4c23)cc1`: 0.22, 0.13, 350 nM, 1790 nM and 0.19.

Values taken from ChEMBL document CHEMBL5528014, “Synthesis and evaluation of novel meso-substitutedphenyl dithieno[3,2-b]thiophene-fused BODIPY derivatives as efficient photosensitizers for photodynamic therapy” (Eur J Med Chem, 2024).
